Measurements taken from patent publication US20200000751A1, “CARBOXYLIC ACIDS FOR TREATING/PREVENTING NASAL CONGESTION” (PROPONENT BIOTECH GMBH, priority 2016, published 2020).

Experiment: Stability of test item in solution
Type: physicochemical
Conditions: in Locke-Ringer Solution

SMILES: CCC(=O)[O-].[Na+] [Sodium propionate]
- Stability of Test Item in Solution: ≥6 months in Locke-Ringer Solution
